Laboratory results taken from ChEMBL document CHEMBL1149442, “Dual binding mode of a novel series of DHODH inhibitors” (J Med Chem, 2006).

Target: Dihydroorotate dehydrogenase (quinone), mitochondrial (Homo sapiens, UniProt Q02127)
Assay: Inhibitory activity against human DHODH

Sequence of Dihydroorotate dehydrogenase (quinone), mitochondrial (Q02127 whole entry): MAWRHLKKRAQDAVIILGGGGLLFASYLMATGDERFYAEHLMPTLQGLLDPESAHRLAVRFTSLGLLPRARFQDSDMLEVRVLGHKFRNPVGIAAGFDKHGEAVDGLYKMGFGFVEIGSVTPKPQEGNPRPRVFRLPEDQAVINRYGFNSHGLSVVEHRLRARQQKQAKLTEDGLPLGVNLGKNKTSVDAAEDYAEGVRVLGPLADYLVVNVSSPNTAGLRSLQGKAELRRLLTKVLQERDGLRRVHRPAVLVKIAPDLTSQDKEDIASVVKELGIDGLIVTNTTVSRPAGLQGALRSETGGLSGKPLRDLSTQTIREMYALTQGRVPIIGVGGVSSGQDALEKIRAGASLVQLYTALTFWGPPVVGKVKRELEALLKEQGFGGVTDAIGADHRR

O=C(Nc1c(F)cc(-c2cccc(OC(F)(F)F)c2)cc1F)c1ccsc1C(=O)O
IC50: 2 nM
